Measurements from patent US11912693B2, “Compounds for modulating S1P1 activity and methods of using the same” (TREVENA, INC., priority 2017, dated 2024).

How the values were obtained:
[1] = biological target: T1, human sphingosine-1-phosphate receptor 1 (S1P1) (Homo sapiens (Human), UniProt P21453); assay: Inhibition of cAMP production (HTRF cAMP HiRange), S1P1 CHO-K1 cells; format: cell-based; conditions: for Emax: CHO-K1, efficacy (SPAN) normalized to fingolimod, read-out: hS1P1 cAMP SPAN; for hS1P1 cAMP pEC50: inhibition of cAMP production, S1P1 CHO-K1 cells
Procedure, shortened: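 CHO-K1 cells stably co-expressing human S1P1 (C-terminal Prolink tag) and EA-β-arrestin2 were grown in AssayComplete Media 6 at 37° C. and 5% CO2, plated, and incubated overnight. Agonist-driven inhibition of intracellular cAMP was read by TR-FRET with the HTRF cAMP HiRange kit on a PheraStar reader. Potency is pEC50, and efficacy (SPAN) is normalized to fingolimod.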
Target sequence in this assay (P21453 whole entry, looked up): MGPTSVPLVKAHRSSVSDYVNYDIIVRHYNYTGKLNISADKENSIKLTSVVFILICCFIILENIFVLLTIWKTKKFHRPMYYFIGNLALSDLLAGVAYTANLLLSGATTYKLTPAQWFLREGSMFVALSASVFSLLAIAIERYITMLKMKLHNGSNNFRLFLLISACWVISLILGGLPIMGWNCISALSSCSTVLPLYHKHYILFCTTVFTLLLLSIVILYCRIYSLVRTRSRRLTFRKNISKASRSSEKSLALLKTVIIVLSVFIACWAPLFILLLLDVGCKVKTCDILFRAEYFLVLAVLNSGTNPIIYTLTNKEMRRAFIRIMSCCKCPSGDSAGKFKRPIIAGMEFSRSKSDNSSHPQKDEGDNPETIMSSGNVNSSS

[2] = biological target: T1, human sphingosine-1-phosphate receptor 1 (S1P1); assay: β-Arrestin2 recruitment assay (PathHunter), S1P1 CHO-K1 cells; format: cell-based; conditions: for Emax: CHO-K1, efficacy (SPAN) normalized to fingolimod, read-out: hS1P1 B-arrestin2 SPAN; for hS1P1 B-arrestin2 pEC50: β-arrestin2 recruitment, S1P1 CHO-K1 cells
Procedure, shortened: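 Enzyme-fragment complementation read-out: agonist-driven β-arrestin2 binding to ProLink-tagged human S1P1 in stable CHO-K1 cells restores β-galactosidase, measured 1 h at room temperature after a 60 min 37° C. compound incubation. Potency as pEC50, efficacy relative to fingolimod (SPAN).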
Target sequence in this assay (P21453 whole entry, looked up): as above
Target sequence in this assay (P32121 whole entry partner, looked up): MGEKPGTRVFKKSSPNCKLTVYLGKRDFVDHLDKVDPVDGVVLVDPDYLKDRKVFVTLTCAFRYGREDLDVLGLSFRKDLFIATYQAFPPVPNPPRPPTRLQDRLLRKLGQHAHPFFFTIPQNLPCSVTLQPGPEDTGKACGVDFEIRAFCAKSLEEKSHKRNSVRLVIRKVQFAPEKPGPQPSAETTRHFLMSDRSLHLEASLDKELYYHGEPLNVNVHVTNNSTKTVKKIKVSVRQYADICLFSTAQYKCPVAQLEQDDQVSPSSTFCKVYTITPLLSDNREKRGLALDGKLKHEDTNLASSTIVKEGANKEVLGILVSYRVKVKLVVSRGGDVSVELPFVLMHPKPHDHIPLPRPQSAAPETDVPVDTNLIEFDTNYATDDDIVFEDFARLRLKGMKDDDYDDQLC

Emax [1] [%] | hS1P1 cAMP pEC50 [1] | Emax [2] [%] | hS1P1 B-arrestin2 pEC50 [2] | Structure (SMILES)
> 75 | <6.5 | < 75 | <5 | c1cc(-c2noc(-c3ccc4c(c3)nnn4C3CC3)n2)ccn1 [Compound 295, 1-cyclopropyl-5-[3-(pyridin-4-yl)-1,2,4-oxadiazol-5-yl]-1H-1,2,3-benzotriazole]
< 75 | <6.5 | < 75 | <5 | CC(C)n1nnc2cc(-c3nc(-c4ccc(OCc5ccccc5)c(C(F)(F)F)c4)no3)ccc21 [Compound 296, 5-{3-[4-(benzyloxy)-3-(trifluoromethyl)phenyl]-1,2,4-oxadiazol-5-yl}-1-(propan-2-yl)-1H-1,2,3-benzotriazole]
> 75 | <6.5 | > 75 | <5 | CC(C)n1nnc2cc(-c3nc4c(o3)-c3ccccc3CC4)ccc21 [Compound 297, 5-{4H,5H-naphtho[2,1-d][1,3]oxazol-2-yl}-1-(propan-2-yl)-1H-1,2,3-benzotriazole]
 | <6.5 |  | >5 | O=C1CC2(CCCC2)Oc2ccc(-c3nc(-c4cccnc4)no3)cc21 [Compound 298, 6-[3-(pyridin-3-yl)-1,2,4-oxadiazol-5-yl]-3,4-dihydrospiro[1-benzopyran-2,1′-cyclopentane]-4-one]
< 75 | <6.5 | > 75 | <5 | COc1cccc(-c2nc(-c3ccc4c(c3)nnn4C(C)C)no2)c1 [Compound 299, 3-(1-isopropylbenzotriazol-5-yl)-5-(3-methoxyphenyl)-1,2,4-oxadiazole]
 | <6.5 |  | <5 | CCC1(CC)CC(=O)c2cc(-c3nnc(-c4ccccc4OC)o3)ccc2O1 [Compound 300, 2,2-diethyl-6-(5-(2-methoxyphenyl)-1,3,4-oxadiazol-2-yl)chroman-4-one]
< 75 | <6.5 | < 75 | <5 | CCC1(CC)CC(=O)c2cc(-c3nc(-c4ccc(OC)nc4)no3)ccc2O1 [Compound 301, 2,2-diethyl-6-[3-(6-methoxy-3-pyridyl)-1,2,4-oxadiazol-5-yl]chroman-4-one]
> 75 | >6.5 | > 75 | >5 | N#Cc1cc(-c2nc(-c3ccc4c(c3)CCC(=O)N4)no2)ccc1NCC1CC1 [Compound 302, 2-((cyclopropylmethyl)amino)-5-(3-(2-oxo-1,2,3,4-tetrahydroquinolin-6-yl)-1,2,4-oxadiazol-5-yl)benzonitrile]
> 75 | <6.5 | > 75 | <5 | CCC1(CC)CC(=O)c2cc(-c3nc(-c4cnccc4OC)no3)ccc2O1 [Compound 303, 2,2-diethyl-6-(3-(4-methoxypyridin-3-yl)-1,2,4-oxadiazol-5-yl)chroman-4-one]
> 75 | >6.5 | > 75 | >5 | CC(C)n1nnc2cc(-c3noc(-c4ccccc4F)n3)ccc21 [Compound 307, 5-(2-fluorophenyl)-3-(1-isopropyl-1H-benzo[d][1,2,3]triazol-5-yl)-1,2,4-oxadiazole]
< 75 | <6.5 | < 75 | <5 | Cc1ccccc1-c1noc(-c2ccc3nnn(C(C)C)c3c2)n1 [Compound 308, 6-[3-(2-methylphenyl)-1,2,4-oxadiazol-5-yl]-1-(propan-2-yl)-1H-1,2,3-benzotriazole]
> 75 | <6.5 | > 75 | <5 | CCC1(CC)CC(=O)c2cc(-c3nc(-c4cccnc4)ns3)ccc2O1 [Compound 309, 2,2-diethyl-6-(3-(pyridin-3-yl)-1,2,4-thiadiazol-5-yl)chroman-4-one]
> 75 | >6.5 | > 75 | >5 | CCC1(CC)CC(=O)c2cc(-c3nc(-c4cncc(O)c4)no3)ccc2O1 [Compound 310, 2,2-diethyl-6-[3-(5-hydroxy-3-pyridyl)-1,2,4-oxadiazol-5-yl]chroman-4-one]
 | <6.5 |  | <5 | CCC1(CC)CC(=O)c2cc(-c3nc(-c4cncc(OC)c4)no3)ccc2O1 [Compound 311, 2,2-diethyl-6-(3-(5-methoxypyridin-3-yl)-1,2,4-oxadiazol-5-yl)chroman-4-one]
> 75 | <6.5 | > 75 | <5 | CCC1(CC)CC(=O)c2cc(-c3nc(-c4ccncc4O)no3)ccc2O1 [Compound 312, 2,2-diethyl-6-(3-(3-hydroxypyridin-4-yl)-1,2,4-oxadiazol-5-yl)chroman-4-one]
> 75 | >6.5 | > 75 | <5 | CCC1(CC)CC(=O)c2cc(-c3nc(-c4ccncc4C(F)(F)F)no3)ccc2O1 [Compound 313, 2,2-diethyl-6-(3-(3-(trifluoromethyl)pyridin-4-yl)-1,2,4-oxadiazol-5-yl)chroman-4-one]
< 75 | <6.5 | < 75 | <5 | CCC1(CC)CC(=O)c2cc(-c3nc(-c4ccnc(C(F)(F)F)c4)no3)ccc2O1 [Compound 314, 2,2-diethyl-6-(3-(2-(trifluoromethyl)pyridin-4-yl)-1,2,4-oxadiazol-5-yl)chroman-4-one]
> 75 | >6.5 | < 75 | >5 | CCC1(CC)CC(=O)c2cc(-c3nc(-c4ccnc(C)c4)no3)ccc2O1 [Compound 315, 2,2-diethyl-6-(3-(2-methylpyridin-4-yl)-1,2,4-oxadiazol-5-yl)chroman-4-one]
> 75 | >6.5 | < 75 | <5 | CC(=O)Nc1ccc(-c2noc(-c3ccc(NC(C)C)c(C#N)c3)n2)cc1 [Compound 316, N-(4-(5-(3-cyano-4-(isopropylamino)phenyl)-1,2,4-oxadiazol-3-yl)phenyl)acetamide]
> 75 | >6.5 | > 75 | >5 | CC(C)n1ccc2cc(-c3nc(-c4ccccc4Cl)no3)ccc21 [Compound 320, 3-(2-chlorophenyl)-5-(1-isopropyl-1H-indol-5-yl)-1,2,4-oxadiazole]
> 75 | <6.5 | < 75 | >5 | CC(C)n1ccc2cc(-c3nc(-c4ccccc4OC(F)(F)F)no3)ccc21 [Compound 321, 5-(1-isopropyl-1H-indol-5-yl)-3-(2-(trifluoromethoxy)phenyl)-1,2,4-oxadiazole]
> 75 | >6.5 | > 75 | >5 | CC(C)n1ccc2cc(-c3nc(-c4ccccc4Br)no3)ccc21 [Compound 322, 3-(2-bromophenyl)-5-(1-isopropyl-1H-indol-5-yl)-1,2,4-oxadiazole]
> 75 | <6.5 | > 75 | <5 | CC(C)n1ccc2cc(-c3nc(-c4ccccc4O)no3)ccc21 [Compound 323, 2-(5-(1-isopropyl-1H-indol-5-yl)-1,2,4-oxadiazol-3-yl)phenol]
< 75 | <6.5 | < 75 | <5 | CC(C)Oc1ccccc1-c1noc(-c2ccc3c(ccn3C(C)C)c2)n1 [Compound 324, 3-(2-isopropoxyphenyl)-5-(1-isopropyl-1H-indol-5-yl)-1,2,4-oxadiazole]
< 75 | <6.5 | < 75 | <5 | COc1cccc(OC)c1-c1noc(-c2ccc3c(ccn3C(C)C)c2)n1 [Compound 325, 3-(2,6-dimethoxyphenyl)-5-(1-isopropylindol-5-yl)-1,2,4-oxadiazole]
> 75 | <6.5 | > 75 | >5 | CC(C)n1ccc2cc(-c3nc(-c4cccc5c4OCO5)no3)ccc21 [Compound 326, 3-(benzo[d][1,3]dioxol-4-yl)-5-(1-isopropyl-1H-indol-5-yl)-1,2,4-oxadiazole]
 | <6.5 |  | >5 | CC(C)n1ccc2cc(-c3nc(-c4cccc5c4OCCC5)no3)ccc21 [Compound 327, 3-chroman-8-yl-5-(1-isopropylindol-5-yl)-1,2,4-oxadiazole]
 | <6.5 |  | >5 | COc1cccc(F)c1-c1noc(-c2ccc3c(ccn3C(C)C)c2)n1 [Compound 328, 3-(2-fluoro-6-methoxy-phenyl)-5-(1-isopropylindol-5-yl)-1,2,4-oxadiazole]
> 75 | >6.5 | > 75 | >5 | Cc1ccccc1-c1noc(-c2ccc3c(cnn3C(C)C)c2)n1 [Compound 329, 5-(1-isopropyl-1H-indazol-5-yl)-3-(o-tolyl)-1,2,4-oxadiazole]
> 75 | >6.5 | > 75 | >5 | CC(C)n1ncc2cc(-c3nc(-c4ccccc4Cl)no3)ccc21 [Compound 330, 3-(2-chlorophenyl)-5-(1-isopropyl-1H-indazol-5-yl)-1,2,4-oxadiazole]
